From paper PMC11876671, “Investigating blood–brain barrier penetration and neurotoxicity of natural products for central nervous system drug development” (Scientific Reports, 2025) come the findings set out here.

The nature of the first data set: in vitro. As to conditions: PAMPA, PAMPA-BBB Pe.
Take `COc1ccc2[nH]c3c(c2c1)CCNC3C` (stereo not shown) [ADRENOGLOMERULOTROPIN]: the Papp (as a rule, the rate of passage across a membrane or cell layer, normalised by area and donor concentration) came out at 23 ×10⁻⁶ cm/s.

`O=C1C[C@@H]2OCC=C3CN4CC[C@]56c7ccccc7N1[C@H]5[C@H]2[C@H]3C[C@H]46` [[…]]: the Papp was found to be 13 ×10⁻⁶ cm/s.

The compound `COc1cc2c(cc1OC)[C@@H]1Cc3ccc(OC)c(OC)c3CN1CC2` [TETRAHYDROPALMATINE] registered a Papp of 156 ×10⁻⁶ cm/s.

Staying with this data set, now noted: PAMPA, PAMPA-BBB Pe(10^-6 cm/sec).
Turning to `COc1cc2c(c(OC)c1OC)-c1ccc(OC)c(=O)cc1[C@@H](NC(C)=O)CC2` [COLCHCINE], the apparent permeability (Papp) is below 1 ×10⁻⁶ cm/s.

Regarding `Cc1cc2nc3c(=O)[nH]c(=O)nc-3n(C[C@H](O)[C@H](O)[C@H](O)CO)c2cc1C` [RIBOFLAVIN], the Papp was below 1 ×10⁻⁶ cm/s.

`O=c1ccc2ccc(O)cc2o1` [UMBELLIFERONE] yielded a Papp below 1 ×10⁻⁶ cm/s.

The data set is the same for the next values; noted with them: PAMPA, PAMPA-BBB Pe(10^-6 cm/sec), Table S3: compounds exhibiting low PAMPA-BBB permeability.
`O=C(/C=C/c1ccc(O)c(O)c1)O[C@@H]1C[C@](O)(C(=O)O)C[C@@H](O)[C@H]1O` [CHLOROGENIC ACID]: the Papp was below 1 ×10⁻⁶ cm/s.

With `CC1=C[C@H](O)CC(C)(C)[C@H]1/C=C/C(C)=C/C=C/C(C)=C/C=C/C=C(C)/C=C/C=C(C)/C=C/C1=C(C)C[C@@H](O)CC1(C)C` [XANTHOPHYLL], the apparent permeability coefficient (Papp) was found to be 5 ×10⁻⁶ cm/s.

With `CC(/C=C/C=C(\C)C(=O)O[C@@H]1O[C@H](CO[C@@H]2O[C@H](CO)[C@@H](O)[C@H](O)[C@H]2O)[C@@H](O)[C@H](O)[C@H]1O)=C\C=C\C=C(C)\C=C\C=C(/C)C(=O)O[C@@H]1O[C@H](CO[C@@H]2O[C@H](CO)[C@@H](O)[C@H](O)[C@H]2O)[C@@H](O)[C@H](O)[C@H]1O` [CROCIN], the Papp is 6.1 ×10⁻⁶ cm/s.

For `Nc1ncn([C@@H]2O[C@H](CO)[C@@H](O)[C@H]2O)c(=O)n1` [AZACITIDINE], the Papp is below 1 ×10⁻⁶ cm/s.

The compound `C[N+]1([O-])CCC[C@@H]1c1cccnc1` (stereo partly shown) [NICOTINE N'-OXIDE] gave a Papp of 2.8 ×10⁻⁶ cm/s.

On to `O=C(Nc1ccccc1C(=O)O)c1ccccc1` [[…] B], for which the Papp worked out at 1.9 ×10⁻⁶ cm/s.

Take `CC(=O)Nc1ccccc1O` [O-ACETAMIDOPHENOL]: the Papp was below 1 ×10⁻⁶ cm/s.

As for `CC/C=C\CC1=C(C)CCC1=O` [JASMONE], the Papp was below 1 ×10⁻⁶ cm/s.

Consider `OC[C@H]1O[C@@H](Oc2ccc(O)cc2)[C@H](O)[C@@H](O)[C@@H]1O` [ARBUTIN], for which the apparent permeability coefficient (Papp) was below 1 ×10⁻⁶ cm/s.

The compound `CCC(=O)c1c(O)cc(O)cc1O` [FLOPROPIONE] yielded a Papp of 2.8 ×10⁻⁶ cm/s.

With `Nc1ncnc2c1ncn2[C@@H]1O[C@H](CO)[C@@H](O)[C@H]1O` [ADENOSINE], the Papp was below 1 ×10⁻⁶ cm/s.

As for `O=C(O[C@@H]1Cc2c(O)cc(O)cc2O[C@@H]1c1ccc(O)c(O)c1)c1cc(O)c(O)c(O)c1` [EPICATECHIN GALLATE], the Papp is below 1 ×10⁻⁶ cm/s.

`O=C1c2c(O)cc(O)cc2O[C@H](c2cc(O)c(O)c(O)c2)[C@H]1O` [DIHYDROMYRICETIN] yielded a Papp below 1 ×10⁻⁶ cm/s.

For the compound `C[C@@H]1O[C@@H](O[C@H]2[C@H](Oc3cc(O)c4c(=O)cc(-c5ccc(O)cc5)oc4c3)O[C@H](CO)[C@@H](O)[C@@H]2O)[C@H](O)[C@H](O)[C@H]1O` [RHOIFOLIN], the Papp was below 1 ×10⁻⁶ cm/s.

`O=c1c(O)c(-c2ccc(O[C@@H]3O[C@H](CO)[C@@H](O)[C@H](O)[C@H]3O)c(O)c2)oc2cc(O)cc(O)c12` [SPIRAEOSIDE] came in with a Papp below 1 ×10⁻⁶ cm/s.

Compound `c1cncc([C@@H]2CCCN2)c1` [NORNICOTINE] returned a Papp of 8.4 ×10⁻⁶ cm/s.

`CC(=O)O[C@@H]1C[C@H]2C(C)(C)C(=O)C=C[C@]2(C)[C@H]2CC[C@@]3(C)[C@H](c4ccoc4)OC(=O)[C@H]4O[C@]43[C@@]21C` [GEDUNIN]: the Papp is below 1 ×10⁻⁶ cm/s.

On to `O=c1c2cc(O)c(O)cc2oc2cc(O)c([C@@H]3O[C@H](CO)[C@@H](O)[C@H](O)[C@H]3O)c(O)c12` [MANGIFERIN], for which the Papp is below 1 ×10⁻⁶ cm/s.

On to `C=C/C(C)=C/C/C=C(\C)CCC=C(C)C`, for which the Papp was below 1 ×10⁻⁶ cm/s.

For the compound `Oc1ccc(-c2[o+]c3cc(O)cc(O)c3cc2O)cc1` [PELARGONIDIN], the Papp is below 1 ×10⁻⁶ cm/s.

The compound `COc1cc(C(O)C(=O)O)ccc1O` (stereo not shown) [[…] ACID] returned a Papp of 5.6 ×10⁻⁶ cm/s.

In turn, `CCCCCCCCCCCCCCCCCCCC(=O)O` [[…]] returned a Papp below 1 ×10⁻⁶ cm/s.

`CC1=C(O)C(=O)OC1C` (stereo not shown) [SOTOLONE] yielded a Papp below 1 ×10⁻⁶ cm/s.

Consider `CN(CCCC(=O)c1cccnc1)N=O`, for which the Papp was below 1 ×10⁻⁶ cm/s.

As for `Cc1coc2c1C(=O)C(=O)c1c-2ccc2c(C)cccc12` [TANSHINONE I], the Papp turned out to be 6.8 ×10⁻⁶ cm/s.

Compound `CNCC/C=C/c1cccnc1` [RIVANICLINE] had a Papp of 7.1 ×10⁻⁶ cm/s.

For `O=C(O)c1ccc2c(c1)OCO2` [PIPERONYLIC ACID], the Papp was below 1 ×10⁻⁶ cm/s.

As to `O=c1c(O)c(-c2cc(O)c(O)c(O)c2)oc2cc(O)ccc12` [ROBINETIN], the Papp amounted to 1 ×10⁻⁶ cm/s.

`COc1ccc(-c2cc(=O)c3c(O)c(OC)c(O[C@@H]4O[C@H](CO[C@@H]5O[C@@H](C)[C@H](O)[C@@H](O)[C@H]5O)[C@@H](O)[C@H](O)[C@H]4O)cc3o2)cc1` [PECTOLINARIN] showed an apparent permeability (Papp) below 1 ×10⁻⁶ cm/s.

Regarding `C[C@@]12C=Cc3occc3[C@H]1CC[C@@]13C[C@@H](CC[C@H]12)[C@@](O)(CO)C3` [KAHWEOL], the Papp is below 1 ×10⁻⁶ cm/s.

Turning to `CC1NC(C(=O)O)Cc2c1[nH]c1ccccc21` (stereo not shown), the Papp is below 1 ×10⁻⁶ cm/s.

Turning to `CC(C)Nc1nc(N)nc(Cl)n1` [DEETHYLATRAZINE], the Papp was determined as 6.8 ×10⁻⁶ cm/s.

On to `O=C(OCC1=C[C@@H](O)[C@@H]2C=CO[C@@H](O[C@@H]3O[C@H](CO)[C@@H](O)[C@H](O)[C@H]3O)[C@H]12)c1ccc(O)cc1` [AGNUSIDE], for which the Papp was below 1 ×10⁻⁶ cm/s.

With `C[C@@H]1Cc2c(Cl)cc(C(=O)N[C@@H](Cc3ccccc3)C(=O)O)c(O)c2C(=O)O1` [[…]], the Papp worked out at 1.6 ×10⁻⁶ cm/s.

Still in this data set, the particulars now being: PAMPA, PAMPA-BBB Pe, Table S2: compounds exhibiting moderate to high PAMPA-BBB permeability.
Consider `C=C1CC[C@H](O)C/C1=C/C=C1\CCC[C@]2(C)[C@@H]([C@H](C)CCC(O)C(C)(C)O)CC[C@@H]12` (stereo partly shown) [24,25-DIHYDROXYVITAMIN D3], for which the Papp was found to be 78 ×10⁻⁶ cm/s.

`C[C@H]1COC2=C1C(=O)C(=O)c1c2ccc2c1CCCC2(C)C` [[…]]: the Papp is 12 ×10⁻⁶ cm/s.

`CC(=O)OCC=Cc1ccccc1` [CINNAMYL ACETATE] showed a Papp of 88 ×10⁻⁶ cm/s.

Take `COc1cc2c(O)c3c(c(-c4ccc5c(c4)OCO5)c2cc1OC)C(=O)OC3` [DIPHYLLIN]: the Papp was found to be 187 ×10⁻⁶ cm/s.

Take `COc1ccc2ccc(=O)oc2c1` [7-METHOXYCOUMARIN]: the Papp was found to be 77 ×10⁻⁶ cm/s.

The compound `CC(C)=CCCC(C)=CC(=O)O` [NEROLIC ACID] had a Papp of 17 ×10⁻⁶ cm/s.

In turn, `COc1ccc2c(c[n+](C)c3c4cc5c(cc4ccc23)OCO5)c1OC` [CHELE[…]] had a Papp of 95 ×10⁻⁶ cm/s.

In the case of `C=C[C@]12CN(C)[C@@H]3[C@H]4CO[C@H](C[C@H]41)[C@]1(C(=O)Nc4ccccc41)[C@@H]32` [GELSEMINE], the Papp was 13 ×10⁻⁶ cm/s.

Compound `COC(=O)C1=CO[C@@H](C)[C@@H]2CN3CCc4c([nH]c5ccccc45)[C@@H]3C[C@H]12` [TETRAHYDROALSTONINE] came in with a Papp above 530 ×10⁻⁶ cm/s.

On to `COc1cc(OC)c(OC)cc1C=O` [GAZARIN], for which the Papp was 64 ×10⁻⁶ cm/s.

As for `COc1ccc(-c2oc3cc(OC)c(OC)c(OC)c3c(=O)c2OC)cc1OC`, the Papp came out at 120 ×10⁻⁶ cm/s.

On to `Cn1c2cccc(=O)c-2nc2ccccc21` [PYOCYANINE], for which the Papp turned out to be 299 ×10⁻⁶ cm/s.

In turn, `COc1cccc(C=O)c1OC` showed a Papp of 107 ×10⁻⁶ cm/s.

The compound `CC[C@@]1(O)C[C@H](O[C@H]2C[C@H](N(C)C)[C@H](O)[C@H](C)O2)c2c(cc3c(c2O)C(=O)c2c(O)cccc2C3=O)[C@H]1C(=O)OC` [AKLAVINE] gave a Papp of 116 ×10⁻⁶ cm/s.

`COC1=C[C@]23CCN(C)[C@H](Cc4ccc(OC)c(O)c42)C3=CC1=O` [SALUTARIDINE] yielded a Papp of 11 ×10⁻⁶ cm/s.
